Strand notation (5' to 3'): a small letter for the sugar, then the base; units joined by * are phosphorothioate-linked, units joined directly phosphodiester-linked; [ ] holds rarer units or linkages, { } end groups; capitals alone tell only the bases. k = constrained ethyl (cEt); [5mC] = 5-methylcytosine; d = 2'-deoxy (DNA)
Test system: Yap1 mRNA
Assay: Antisense inhibition of human Yap1 in A-431 cells by cEt gapmers, single dose (Example 2, RTS4814)
Type: cell-based
Procedure, shortened: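 A-431 cells (5,000/well) received 2,000 nM oligonucleotide by free uptake for about 48 h. Yap1 mRNA was then quantified by RT-qPCR with primer probe set RTS4814, normalized to RIBOGREEN total RNA, and reported as % of untreated control; asterisked values mark oligos inside the amplicon.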

[1] = Table 20, Yap1 mRNA, percent of untreated control, 3-10-3 cEt gapmers targeting SEQ ID NO.: 1 and 2
[2] = Table 5, A-431 cells, 5,000 cells per well, free uptake, 2,000 nM modified oligonucleotide, approx. 48 hours, RTS4814, normalized to RIBOGREEN, Yap1 mRNA relative to untreated control cells
[3] = Table 23, Yap1 mRNA as percent of untreated control, 3-10-3 cEt gapmers, single dose
[4] = Table 21, Yap1 mRNA, percent of untreated control, 3-10-3 cEt gapmers targeting SEQ ID NO.: 1 and 2
[5] = Table 24, Yap1 mRNA as percent of untreated control, 3-10-3 cEt gapmers targeting SEQ ID NO.: 1, and 2

Substance: 1075110 (antisense kG*kA*k[5mC]*dT*dA*dA*dA*dA*dA*d[5mC]*dA*dT*dT*kG*kT*kG) [Compound 1075110]
- YAP1 (% UTC) [1]: 120 % UTC

Substance: 716486 (kA*kT*k[5mC]*dA*dT*dG*dA*dT*dT*dA*dT*d[5mC]*dT*k[5mC]*kT*kA; antisense) [Compound 716486]
- YAP1 (% UTC) (Table 6, A-431 cells, 5,000 cells per well, free uptake, 2,000 nM modified oligonucleotide, approx. 48 hours, RTS4814, normalized to RIBOGREEN, Yap1 mRNA relative to untreated control cells): 68 % UTC

Substance: 716557 (kA*kT*kT*dG*dG*dT*dA*d[5mC]*dT*dA*dT*dA*dT*kA*kT*kA; antisense) [Compound 716557]
- YAP1 (% UTC) [2]: 80 % UTC

Substance: 1076361 (kT*kG*kG*dG*dA*dA*dA*dA*dG*d[5mC]*dT*dA*d[5mC]*k[5mC]*kA*k[5mC]; antisense) [Compound 1076361]
- YAP1 (% UTC) [3]: 87 % UTC

Substance: 1075207 (antisense k[5mC]*kT*kA*dT*dT*dA*dA*dA*dT*dG*dA*dG*d[5mC]*kA*k[5mC]*k[5mC]) [Compound 1075207]
- YAP1 (% UTC) [4]: 4 % UTC

Substance: 1076198 (k[5mC]*kT*kA*dT*dT*dA*dT*d[5mC]*dA*dA*dG*dG*dG*kA*kA*kT; antisense) [Compound 1076198]
- YAP1 (% UTC) [1]: 81 % UTC

Substance: 716515 (antisense kT*kA*kA*dG*d[5mC]*dT*dA*dA*dA*dG*d[5mC]*dT*dA*kA*kT*k[5mC]) [Compound 716515]
- YAP1 (% UTC) [2]: 123 % UTC

Substance: 716404 (k[5mC]*kG*kT*d[5mC]*dA*dT*dT*dG*dT*dT*d[5mC]*dT*d[5mC]*kA*kA*kT; antisense) [Compound 716404]
- YAP1 (% UTC) [2]: 63 % UTC

Substance: 1075017 (antisense k[5mC]*kT*kT*dA*dA*dA*dG*dT*dG*dA*dT*dA*d[5mC]*kA*k[5mC]*k[5mC]) [Compound 1075017]
- YAP1 (% UTC) [3]: 19 % UTC

Substance: 1076075 (kA*k[5mC]*kA*d[5mC]*dA*dA*dG*dG*dG*dT*dT*dG*d[5mC]*kT*kA*kA; antisense) [Compound 1076075]
- YAP1 (% UTC) (Table 25, Yap1 mRNA as percent of untreated control, 3-10-3 cEt gapmers targeting SEQ ID NO.: 1, and 2): 38 % UTC

Substance: 1076202 (kT*k[5mC]*kT*dA*dA*dA*dA*dA*dG*dA*d[5mC]*dA*dG*kG*kG*k[5mC]; antisense) [Compound 1076202]
- YAP1 (% UTC) [5]: 32 % UTC

Substance: 1075880 (kA*kT*kT*dA*dA*d[5mC]*dT*dA*d[5mC]*dA*d[5mC]*d[5mC]*dA*k[5mC]*kG*kA; antisense) [Compound 1075880]
- YAP1 (% UTC) (Table 22, Yap1 mRNA as percent of untreated control, 3-10-3 cEt gapmers, single dose): 30 % UTC

Substance: 1075186 (kA*kA*kA*dT*d[5mC]*dG*dA*dT*dT*dA*dT*dT*d[5mC]*kA*kG*kA; antisense) [compound 1075186]
- YAP1 (% UTC) (Table 32, Yap1 mRNA, percent of untreated control, 3-10-3 cEt gapmers targeting SEQ ID NO.: 1, and 2): 73 % UTC

Substance: 1074890 (antisense kG*kA*kA*dG*dT*dT*dT*dA*dG*d[5mC]*d[5mC]*dT*dG*kA*kA*kG) [Compound 1074890]
- YAP1 (% UTC) [5]: 58 % UTC

Substance: 1075975 (kG*kG*kA*dA*dA*dA*dA*dA*dA*dT*dT*d[5mC]*d[5mC]*kG*k[5mC]*kA; antisense) [Compound 1075975]
- YAP1 (% UTC) [4]: 84 % UTC

Substance: 716500 (kA*kA*k[5mC]*dT*dT*d[5mC]*dT*dT*dA*d[5mC]*dT*dT*d[5mC]*k[5mC]*kA*kA; antisense) [Compound 716500]
- YAP1 (% UTC) [2]: 18 % UTC

Substance: 1074310 (antisense kT*k[5mC]*k[5mC]*dG*d[5mC]*dA*dT*dT*dG*d[5mC]*d[5mC]*dT*dG*kT*kG*kG) [Compound 1074310]
- YAP1 (% UTC) [1]: 100 % UTC

Substance: 1075498 (k[5mC]*kA*kT*dT*dA*dT*dA*dT*dA*dA*dT*dG*d[5mC]*kA*kG*kG; antisense) [Compound 1075498]
- YAP1 (% UTC) [5]: 9 % UTC

Substance: 1074822 (kT*kA*kG*dA*dA*dA*dA*dG*dT*dG*dT*dT*dA*kA*kG*k[5mC]; antisense) [Compound 1074822]
- YAP1 (% UTC) [1]: 25 % UTC

Substance: 1076326 (kG*k[5mC]*kT*dA*dA*dT*dA*dA*dT*dG*dG*dA*dA*kG*kA*kG; antisense) [Compound 1076326]
- YAP1 (% UTC) [1]: 4 % UTC

Substance: 1074790 (k[5mC]*kA*kT*d[5mC]*dA*dA*d[5mC]*d[5mC]*dA*dT*dA*dA*dG*kT*kA*kG; antisense) [Compound 1074790]
- YAP1 (% UTC) [1]: 28 % UTC

From US11214803B2, “Modulators of YAP1 expression” (Ionis Pharmaceuticals, Inc., priority 2019, dated 2022)
